Assays:
COVID-19 infection [1] = test: Phase IIa study: eye-family symptom score; type: in vivo
COVID-19 infection [2] = test: Phase IIa study: COVID-19 PRO daily self-score, symptom severity score (items 1-33, 0-132); type: in vivo

CN(C)C(=O)COC(=O)Cc1ccc(OC(=O)c2ccc(NC(=N)N)cc2)cc1 [camostat, 4-[[4-[(Aminoiminomethyl)amino]benzoyl]oxy]benzeneacetic acid 2-(dimethylamino)-2-oxoethyl ester]
eye-family symptom score, Fitzmaurice model, Camostat (COVID-19 infection [1]; day 0): 1.4 (0.2)
eye-family symptom score, Fitzmaurice model, Camostat (COVID-19 infection [1]; day 1): 1.4 (0.2)
eye-family symptom score, Fitzmaurice model, Effect (placebo vs camostat) (COVID-19 infection [1]; day 1): −0.3 (0.3)
eye-family symptom score, Fitzmaurice model, Camostat (COVID-19 infection [1]; day 2): 1.2 (0.2)
eye-family symptom score, Fitzmaurice model, Effect (placebo vs camostat) (COVID-19 infection [1]; day 2): −0.2 (0.3)
eye-family symptom score, Fitzmaurice model, Camostat (COVID-19 infection [1]; day 3): 0.9 (0.2)
eye-family symptom score, Fitzmaurice model, Effect (placebo vs camostat) (COVID-19 infection [1]; day 3): −0.2 (0.3)
eye-family symptom score, Fitzmaurice model, Camostat (COVID-19 infection [1]; day 4): 0.5 (0.2)
eye-family symptom score, Fitzmaurice model, Effect (placebo vs camostat) (COVID-19 infection [1]; day 4): 0.2 (0.3)
eye-family symptom score, Fitzmaurice model, Camostat (COVID-19 infection [1]; day 5): 0.5 (0.2)
eye-family symptom score, Fitzmaurice model, Effect (placebo vs camostat) (COVID-19 infection [1]; day 5): −0.2 (0.3)
eye-family symptom score, Fitzmaurice model, Camostat (COVID-19 infection [1]; day 6): 0.2 (0.2)
eye-family symptom score, Fitzmaurice model, Effect (placebo vs camostat) (COVID-19 infection [1]; day 6): 0.3 (0.3)
eye-family symptom score, Fitzmaurice model, Camostat (COVID-19 infection [1]; day 7): 0.2 (0.2)
eye-family symptom score, Fitzmaurice model, Effect (placebo vs camostat) (COVID-19 infection [1]; day 7): 0.3 (0.3)
eye-family symptom score, Fitzmaurice model, Camostat (COVID-19 infection [1]; day 8): 0.1 (0.2)
eye-family symptom score, Fitzmaurice model, Effect (placebo vs camostat) (COVID-19 infection [1]; day 8): 0.5 (0.3)
eye-family symptom score, Fitzmaurice model, Camostat (COVID-19 infection [1]; day 9): 0.2 (0.2)
eye-family symptom score, Fitzmaurice model, Effect (placebo vs camostat) (COVID-19 infection [1]; day 9): 0.4 (0.3)
eye-family symptom score, Fitzmaurice model, Camostat (COVID-19 infection [1]; day 10): 0.2 (0.2)
eye-family symptom score, Fitzmaurice model, Effect (placebo vs camostat) (COVID-19 infection [1]; day 10): 0.3 (0.3)
eye-family symptom score, Fitzmaurice model, Camostat (COVID-19 infection [1]; day 11): 0 (0.2)
eye-family symptom score, Fitzmaurice model, Effect (placebo vs camostat) (COVID-19 infection [1]; day 11): 0.4 (0.3)
eye-family symptom score, Fitzmaurice model, Camostat (COVID-19 infection [1]; day 12): 0 (0.2)
eye-family symptom score, Fitzmaurice model, Effect (placebo vs camostat) (COVID-19 infection [1]; day 12): 0.3 (0.3)
eye-family symptom score, Fitzmaurice model, Camostat (COVID-19 infection [1]; day 13): 0.1 (0.2)
eye-family symptom score, Fitzmaurice model, Effect (placebo vs camostat) (COVID-19 infection [1]; day 13): 0.1 (0.3)
eye-family symptom score, Fitzmaurice model, Camostat (COVID-19 infection [1]; day 14): 0.2 (0.2)
eye-family symptom score, Fitzmaurice model, Effect (placebo vs camostat) (COVID-19 infection [1]; day 14): 0.1 (0.3)
acceleration of COVID-19 symptom resolution (COVID-19 infection [2]; COVID-19 PRO self-score, vs placebo): up to 5 days
COVID-19 symptom severity score raw Mean (COVID-19 infection [2]; day 0): 34.9
symptom score, Fitzmaurice mixed effects model, A: Camostat arm (COVID-19 infection [2]; day 0): 31.81 (2.17)
symptom score, Fitzmaurice mixed effects model, B − A (placebo − camostat) (COVID-19 infection [2]; day 0): 0
symptom severity score, Negative binomial model, A: Camostat arm (COVID-19 infection [2]; day 0): 31.81 (2.56)
symptom severity score, Negative binomial model, B − A (COVID-19 infection [2]; day 0): 0
COVID-19 symptom severity score raw Mean (COVID-19 infection [2]; day 1): 30.4
symptom score, Fitzmaurice mixed effects model, A: Camostat arm (COVID-19 infection [2]; day 1): 27.95 (2.59)
symptom score, Fitzmaurice mixed effects model, B − A (placebo − camostat) (COVID-19 infection [2]; day 1): −0.73 (2.76)
symptom severity score, ANCOVA linear mixed model, A: Camostat arm (COVID-19 infection [2]; day 1): −2.93 (2.11)
symptom severity score, ANCOVA linear mixed model, B − A (placebo − camostat) (COVID-19 infection [2]; day 1): −1.83 (2.99)
symptom severity score, Negative binomial model, A: Camostat arm (COVID-19 infection [2]; day 1): 28.22 (3.06)
symptom severity score, Negative binomial model, B − A (COVID-19 infection [2]; day 1): 0.95 (0.1)
COVID-19 symptom severity score raw Mean (COVID-19 infection [2]; day 2): 29.7
symptom score, Fitzmaurice mixed effects model, A: Camostat arm (COVID-19 infection [2]; day 2): 26.89 (2.63)
symptom score, Fitzmaurice mixed effects model, B − A (placebo − camostat) (COVID-19 infection [2]; day 2): −3.09 (2.8)
symptom severity score, ANCOVA linear mixed model, A: Camostat arm (COVID-19 infection [2]; day 2): −3.96 (2.16)
symptom severity score, ANCOVA linear mixed model, B − A (placebo − camostat) (COVID-19 infection [2]; day 2): −4.22 (3.02)
symptom severity score, Negative binomial model, A: Camostat arm (COVID-19 infection [2]; day 2): 27.28 (3.05)
symptom severity score, Negative binomial model, B − A (COVID-19 infection [2]; day 2): 0.85 (0.1)
COVID-19 symptom severity score raw Mean (COVID-19 infection [2]; day 3): 24.1
symptom score, Fitzmaurice mixed effects model, A: Camostat arm (COVID-19 infection [2]; day 3): 22.97 (2.6)
symptom score, Fitzmaurice mixed effects model, B − A (placebo − camostat) (COVID-19 infection [2]; day 3): −0.36 (2.79)
symptom severity score, ANCOVA linear mixed model, A: Camostat arm (COVID-19 infection [2]; day 3): −8.01 (2.13)
symptom severity score, ANCOVA linear mixed model, B − A (placebo − camostat) (COVID-19 infection [2]; day 3): −1.34 (3.01)
symptom severity score, Negative binomial model, A: Camostat arm (COVID-19 infection [2]; day 3): 23.35 (3.02)
symptom severity score, Negative binomial model, B − A (COVID-19 infection [2]; day 3): 0.96 (0.13)
COVID-19 symptom severity score raw Mean (COVID-19 infection [2]; day 4): 20.8
symptom score, Fitzmaurice mixed effects model, A: Camostat arm (COVID-19 infection [2]; day 4): 19.69 (2.6)
symptom score, Fitzmaurice mixed effects model, B − A (placebo − camostat) (COVID-19 infection [2]; day 4): 0.89 (2.8)
symptom severity score, ANCOVA linear mixed model, A: Camostat arm (COVID-19 infection [2]; day 4): −11.29 (2.13)
symptom severity score, ANCOVA linear mixed model, B − A (placebo − camostat) (COVID-19 infection [2]; day 4): −0.1 (3.02)
symptom severity score, Negative binomial model, A: Camostat arm (COVID-19 infection [2]; day 4): 20.17 (2.89)
symptom severity score, Negative binomial model, B − A (COVID-19 infection [2]; day 4): 1 (0.17)
COVID-19 symptom severity score raw Mean (COVID-19 infection [2]; day 5): 17.7
symptom score, Fitzmaurice mixed effects model, A: Camostat arm (COVID-19 infection [2]; day 5): 16.57 (2.6)
symptom score, Fitzmaurice mixed effects model, B − A (placebo − camostat) (COVID-19 infection [2]; day 5): 5.84 (2.79)
symptom severity score, ANCOVA linear mixed model, A: Camostat arm (COVID-19 infection [2]; day 5): −14.41 (2.13)
symptom severity score, ANCOVA linear mixed model, B − A (placebo − camostat) (COVID-19 infection [2]; day 5): 4.84 (3.01)
symptom severity score, Negative binomial model, A: Camostat arm (COVID-19 infection [2]; day 5): 17.14 (2.63)
symptom severity score, Negative binomial model, B − A (COVID-19 infection [2]; day 5): 1.27 (0.24)
COVID-19 symptom severity score raw Mean (COVID-19 infection [2]; day 6): 14.1
symptom score, Fitzmaurice mixed effects model, A: Camostat arm (COVID-19 infection [2]; day 6): 12.53 (2.62)
symptom score, Fitzmaurice mixed effects model, B − A (placebo − camostat) (COVID-19 infection [2]; day 6): 6.9 (2.81)
symptom severity score, ANCOVA linear mixed model, A: Camostat arm (COVID-19 infection [2]; day 6): −18.43 (2.15)
symptom severity score, ANCOVA linear mixed model, B − A (placebo − camostat) (COVID-19 infection [2]; day 6): 5.89 (3.02)
symptom severity score, Negative binomial model, A: Camostat arm (COVID-19 infection [2]; day 6): 13.4 (2.45)
symptom severity score, Negative binomial model, B − A (COVID-19 infection [2]; day 6): 1.38 (0.29)
COVID-19 symptom severity score raw Mean (COVID-19 infection [2]; day 7): 12.6
symptom score, Fitzmaurice mixed effects model, A: Camostat arm (COVID-19 infection [2]; day 7): 11.37 (2.67)
symptom score, Fitzmaurice mixed effects model, B − A (placebo − camostat) (COVID-19 infection [2]; day 7): 4.68 (2.84)
symptom severity score, ANCOVA linear mixed model, A: Camostat arm (COVID-19 infection [2]; day 7): −19.64 (2.2)
symptom severity score, ANCOVA linear mixed model, B − A (placebo − camostat) (COVID-19 infection [2]; day 7): 3.71 (3.05)
